± gives the standard deviation of the averaged measurements.
Legend:
Assay in all cases: level (log10 ratio to DMSO vehicle control); higher = higher biomarker level / cell amount than vehicle control
Conditions in all cases: in DMSO
[1] = compound: FC(F)(F)C(F)(F)CNCC(F)(F)C(F)(F)F [Bis(1H,1H-perfluoropropyl)amine]
Method: (§1)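 BioMAP Diversity Plus panel of 12 human primary cell co-culture systems (3C, 4H, LPS, SAg, BT, BF4T, BE3C, CASM3C, HDF3CGF, KF3CT, MyoF, Mphg). Compounds were added 1 h before stimulation and left for 24 h (MyoF 48 h; BT 72 h for soluble read-outs or 6 d for IgG). Biomarkers were read by ELISA, cytotoxicity by SRB, PBMC viability and proliferation by Alamar Blue. Each well value was divided by the mean of 8 DMSO control wells on the same plate and log10 transformed; duplicate blinded samples were tested at 4 concentrations.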

[2] = compound: O=C(O)C=CC(F)(C(F)(F)F)C(F)(F)F [3-(Perfluoroisopropyl)-2-propenoic acid]
Method: as §1

Nonafluoropentanamide = compound: NC(=O)C(F)(F)C(F)(F)C(F)(F)C(F)(F)F [Nonafluoropentanamide]
Method: as §1

[3] = compound: O=C(O)C(F)(F)C(F)(F)C(F)(F)C(F)(F)C(F)(F)C(F)(F)C(F)(F)C(F)(F)C(F)(F)C(F)F [11-H-Perfluoroundecanoic acid]
Method: as §1

Hexafluoroamylene glycol = compound: OCC(F)(F)C(F)(F)C(F)(F)CO [Hexafluoroamylene glycol]
Method: as §1

[4] = compound: O=S(=O)(O)C(F)(F)C(F)(F)C(F)(F)C(F)(F)C(F)(F)C(F)(F)C(F)(F)C(F)(F)C(F)(F)C(F)(F)F [Sodium perfluorodecanesulfonate]
Method: as §1

## KF3CT:CXCL8/IL-8
[1]; 6700 nM
  level (log10): -0.0005 ± 0.005
[1]; 20000 nM
  level (log10): -0.0065 ± 0.0092
[1]; 60000 nM
  level (log10): 0.0115 ± 0.015
[2]; 6700 nM
  level (log10): 0.001 ± 0.013
[2]; 20000 nM
  level (log10): 0.0085 ± 0.028
[2]; 60000 nM
  level (log10): 0.018 ± 0.0014
Nonafluoropentanamide; 6700 nM
  level (log10): -0.0465 ± 0.036
Nonafluoropentanamide; 20000 nM
  level (log10): -0.03 ± 0.014
Nonafluoropentanamide; 60000 nM
  level (log10): -0.0165 ± 0.03
[3]; 6700 nM
  level (log10): 0.0005 ± 0.019
[3]; 20000 nM
  level (log10): 0.0445 ± 0.012
Hexafluoroamylene glycol; 6700 nM
  level (log10): 0.001 ± 0.044
Hexafluoroamylene glycol; 20000 nM
  level (log10): -0.0015 ± 0.028
Hexafluoroamylene glycol; 60000 nM
  level (log10): 0.004 ± 0.02
[4]; 1500 nM
  level (log10): 0 ± 0.044
[4]; 4400 nM
  level (log10): -0.0125 ± 0.0064
[4]; 13000 nM
  level (log10): -0.0175 ± 0.012
[4]; 40000 nM
  level (log10): -0.0105 ± 0.005
